Results as given in US20240308996A1, “PYRIDOPYRIDINES AND DERIVATIVES THEREOF AS SELECTIVE KINASE INHIBITORS” (University of Sharjah, priority 2023, published 2024).

What was measured:
[1] = biological target: Flt3 (Homo sapiens, UniProt P36888); test: Kinase IC50, Flt3
[2] = biological target: Flt4 (Homo sapiens, UniProt P35916); test: Kinase IC50, Flt4
[3] = biological target: FMS (Homo sapiens, UniProt P07333); test: Kinase IC50, FMS
[4] = biological target: TrkA (Homo sapiens, UniProt P04629); test: Kinase IC50, TrkA
Sequence of TrkA (P04629 33-796): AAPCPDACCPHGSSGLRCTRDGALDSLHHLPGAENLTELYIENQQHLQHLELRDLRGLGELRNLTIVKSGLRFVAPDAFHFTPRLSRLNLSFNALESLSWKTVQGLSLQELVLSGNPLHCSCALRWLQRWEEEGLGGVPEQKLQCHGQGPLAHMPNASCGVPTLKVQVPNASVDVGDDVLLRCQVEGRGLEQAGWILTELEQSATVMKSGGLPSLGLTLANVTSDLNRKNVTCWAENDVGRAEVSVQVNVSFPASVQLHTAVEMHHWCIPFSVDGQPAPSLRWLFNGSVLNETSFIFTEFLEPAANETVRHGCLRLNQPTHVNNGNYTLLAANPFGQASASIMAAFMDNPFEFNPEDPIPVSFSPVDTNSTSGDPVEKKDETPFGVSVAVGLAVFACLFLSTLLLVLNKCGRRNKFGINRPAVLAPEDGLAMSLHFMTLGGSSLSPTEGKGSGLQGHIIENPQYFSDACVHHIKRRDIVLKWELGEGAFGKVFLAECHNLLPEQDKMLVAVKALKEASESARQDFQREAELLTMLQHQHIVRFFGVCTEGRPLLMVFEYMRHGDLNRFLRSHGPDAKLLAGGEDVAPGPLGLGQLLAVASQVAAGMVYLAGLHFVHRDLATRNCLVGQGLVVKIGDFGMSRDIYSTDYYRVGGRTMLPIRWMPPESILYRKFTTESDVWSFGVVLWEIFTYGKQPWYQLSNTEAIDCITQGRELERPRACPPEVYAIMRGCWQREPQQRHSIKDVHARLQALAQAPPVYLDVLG

Sequence of FMS (P07333 20-972): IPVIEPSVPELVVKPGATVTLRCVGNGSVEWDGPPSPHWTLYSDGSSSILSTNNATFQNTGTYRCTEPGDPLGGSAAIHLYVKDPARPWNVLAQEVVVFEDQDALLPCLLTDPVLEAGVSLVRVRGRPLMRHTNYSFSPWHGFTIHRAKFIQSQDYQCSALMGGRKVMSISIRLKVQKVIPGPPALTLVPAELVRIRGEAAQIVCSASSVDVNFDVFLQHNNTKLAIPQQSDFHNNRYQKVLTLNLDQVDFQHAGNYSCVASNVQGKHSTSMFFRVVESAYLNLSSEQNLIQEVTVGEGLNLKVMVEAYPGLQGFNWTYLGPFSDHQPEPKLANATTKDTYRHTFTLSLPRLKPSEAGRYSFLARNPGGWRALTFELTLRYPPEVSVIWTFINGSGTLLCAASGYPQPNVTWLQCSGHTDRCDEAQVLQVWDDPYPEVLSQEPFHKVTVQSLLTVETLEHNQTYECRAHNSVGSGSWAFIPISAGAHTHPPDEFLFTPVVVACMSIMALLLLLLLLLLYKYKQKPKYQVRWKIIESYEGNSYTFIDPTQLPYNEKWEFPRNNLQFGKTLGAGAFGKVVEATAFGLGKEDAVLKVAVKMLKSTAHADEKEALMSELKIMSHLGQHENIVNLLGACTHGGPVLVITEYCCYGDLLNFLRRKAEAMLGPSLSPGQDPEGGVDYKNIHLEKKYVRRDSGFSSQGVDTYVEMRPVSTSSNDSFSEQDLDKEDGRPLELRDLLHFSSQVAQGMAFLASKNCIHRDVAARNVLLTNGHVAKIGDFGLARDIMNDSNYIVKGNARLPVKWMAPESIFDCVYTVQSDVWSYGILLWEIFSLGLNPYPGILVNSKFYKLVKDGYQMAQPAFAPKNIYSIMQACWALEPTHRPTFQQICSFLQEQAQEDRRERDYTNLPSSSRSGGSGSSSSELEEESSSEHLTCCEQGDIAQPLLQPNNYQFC
Sequence of Flt4 (P35916 25-1363): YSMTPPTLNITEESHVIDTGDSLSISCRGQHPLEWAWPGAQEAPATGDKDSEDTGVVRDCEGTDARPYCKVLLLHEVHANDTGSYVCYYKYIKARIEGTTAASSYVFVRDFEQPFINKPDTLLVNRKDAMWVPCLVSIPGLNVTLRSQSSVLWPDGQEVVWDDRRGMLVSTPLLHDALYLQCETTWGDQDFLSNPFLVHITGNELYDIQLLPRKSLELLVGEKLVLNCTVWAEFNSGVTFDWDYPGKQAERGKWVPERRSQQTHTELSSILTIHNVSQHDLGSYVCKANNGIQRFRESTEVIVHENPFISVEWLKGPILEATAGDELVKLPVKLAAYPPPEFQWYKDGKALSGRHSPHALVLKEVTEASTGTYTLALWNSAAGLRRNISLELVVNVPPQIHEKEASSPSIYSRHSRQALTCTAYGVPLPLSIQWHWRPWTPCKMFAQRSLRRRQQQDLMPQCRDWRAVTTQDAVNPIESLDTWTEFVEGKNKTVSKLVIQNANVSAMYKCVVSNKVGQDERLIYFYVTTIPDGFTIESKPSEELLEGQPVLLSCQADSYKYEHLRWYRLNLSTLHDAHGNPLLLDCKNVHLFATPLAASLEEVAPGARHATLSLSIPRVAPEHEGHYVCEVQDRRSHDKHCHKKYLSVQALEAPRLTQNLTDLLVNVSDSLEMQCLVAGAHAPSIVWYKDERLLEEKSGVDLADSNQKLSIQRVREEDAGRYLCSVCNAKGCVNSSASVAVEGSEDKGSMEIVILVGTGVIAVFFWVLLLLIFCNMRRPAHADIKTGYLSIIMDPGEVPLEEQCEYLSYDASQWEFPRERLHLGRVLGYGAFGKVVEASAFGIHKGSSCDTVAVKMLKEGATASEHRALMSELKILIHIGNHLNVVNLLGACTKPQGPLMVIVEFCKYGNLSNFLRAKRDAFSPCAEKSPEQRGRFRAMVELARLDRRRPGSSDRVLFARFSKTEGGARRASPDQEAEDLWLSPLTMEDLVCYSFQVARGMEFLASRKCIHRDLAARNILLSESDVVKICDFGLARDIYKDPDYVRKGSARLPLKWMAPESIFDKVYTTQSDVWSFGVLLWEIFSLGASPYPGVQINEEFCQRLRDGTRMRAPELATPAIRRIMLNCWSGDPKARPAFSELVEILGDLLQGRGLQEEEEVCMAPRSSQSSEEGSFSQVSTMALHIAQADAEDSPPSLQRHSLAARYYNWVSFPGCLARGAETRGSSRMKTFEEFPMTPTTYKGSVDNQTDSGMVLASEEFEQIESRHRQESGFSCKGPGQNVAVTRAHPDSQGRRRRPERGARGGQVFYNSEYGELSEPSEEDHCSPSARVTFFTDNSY
Sequence of Flt3 (P36888 27-993): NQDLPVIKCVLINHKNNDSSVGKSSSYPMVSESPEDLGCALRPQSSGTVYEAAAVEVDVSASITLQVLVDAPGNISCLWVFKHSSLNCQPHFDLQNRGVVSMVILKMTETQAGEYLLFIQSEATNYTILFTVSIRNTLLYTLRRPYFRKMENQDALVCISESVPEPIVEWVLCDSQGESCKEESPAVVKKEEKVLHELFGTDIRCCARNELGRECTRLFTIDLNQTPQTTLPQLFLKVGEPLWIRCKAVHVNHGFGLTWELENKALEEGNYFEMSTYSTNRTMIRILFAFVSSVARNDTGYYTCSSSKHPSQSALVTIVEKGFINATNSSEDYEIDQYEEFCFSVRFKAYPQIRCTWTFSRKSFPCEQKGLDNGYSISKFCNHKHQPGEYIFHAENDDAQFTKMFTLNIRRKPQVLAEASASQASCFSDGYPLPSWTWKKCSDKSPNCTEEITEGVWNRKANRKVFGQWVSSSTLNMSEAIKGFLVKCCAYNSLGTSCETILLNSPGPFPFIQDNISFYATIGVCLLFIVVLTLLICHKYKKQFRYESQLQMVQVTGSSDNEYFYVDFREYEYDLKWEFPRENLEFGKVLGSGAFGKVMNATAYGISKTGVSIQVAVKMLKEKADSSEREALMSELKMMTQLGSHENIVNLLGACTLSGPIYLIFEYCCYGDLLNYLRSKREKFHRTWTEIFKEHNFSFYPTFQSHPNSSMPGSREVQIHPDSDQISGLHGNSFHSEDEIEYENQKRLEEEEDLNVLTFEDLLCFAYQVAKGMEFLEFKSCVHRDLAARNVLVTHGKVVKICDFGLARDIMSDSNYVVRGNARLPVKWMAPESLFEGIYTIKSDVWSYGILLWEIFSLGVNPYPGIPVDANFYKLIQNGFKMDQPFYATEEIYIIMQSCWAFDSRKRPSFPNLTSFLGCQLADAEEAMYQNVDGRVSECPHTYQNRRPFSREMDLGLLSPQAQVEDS

Row | Compound | IC50 [1] [nM] | IC50 [2] [nM] | IC50 [3] [nM] | potency against FMS kinase compared with sorafenib [3] | potency and selectivity against FMS kinase (IC50 values) ([3]; against the most sensitive kinases) | IC50 [4] [nM]
1 | CNC(=O)c1cc(-c2ccc(NC(=O)Nc3ccc(N4CCN(C)CC4)c(C(F)(F)F)c3)cc2)nc2cccnc12 [Compound 13b, N-Methyl-2-(4-(3-(4-(4-methylpiperazin-1-yl)-3-(trifluoromethyl)phenyl)ureido)phenyl)-1,5-naphthyridine-4-carboxamide] | 362 ± 0.4 | 366.3 ± 0.5 | 21.5 ± 0.2 | more potent than the known drug sorafenib | high potency and selectivity against FMS kinase | 
2 | CCN1CCN(c2ccc(NC(=O)Nc3ccc(-c4cc(C(=O)NC)c5ncccc5n4)cc3)cc2C(F)(F)F)CC1 [Compound 13c, 2-(4-(3-(4-(4-Ethylpiperazin-1-yl)-3-(trifluoromethyl)phenyl)ureido)phenyl)-N-methyl-1,5-naphthyridine-4-carboxamide] | 483.6 ± 0.7 | 945.1 ± 0.5 | 73.9 ± 0.2 | more potent than the known drug sorafenib |  | 958
